Assay results published in patent publication US20210238528A1, “CELL SCAFFOLD MATERIAL” (Stem Cell & Device Laboratory, Inc., priority 2018, published 2021).

Test system: myocardial cells derived from human iPS cells
Assay: Drug response of myocardial cells determined with MEA probe
Conditions: for Drug response, Oriented fiber sheet 2: myocardial cells cultured 7 days with oriented fiber sheet 2, pitch 10 μm

`COc1ccc(CCN(C)CCCC(C#N)(c2ccc(OC)c(OC)c2)C(C)C)cc1OC` (stereo not shown) [Verapamil] was tested, and the “arrest (division stop)” value (0.3 μM verapamil, myocardial cells directly cultured on MEA probe) was “arrest (division stop) occurred”, the “Drug response, Oriented fiber sheet 2” value was “No arrest occurred” and the “Drug response, Oriented fiber sheet 2” value (listed as verapamil) was “no an arrest (division stop) occurred”. The “Drug response, MEA probe” value (myocardial cells cultured directly on MEA probe) was “Arrest occurred”.
